Laboratory results: patent publication US20150005347A1, “NITROGEN-CONTAINING HETEROCYCLIC DERIVATIVE HAVING 2-IMINO GROUP AND PEST CONTROL AGENT INCLUDING THE SAME” (MEIJI SEIKA PHARMA CO., LTD., priority 2012, published 2015)
Where two headings read alike, the source gives them in different places.

Experiments:
Format in all cases: in vivo
[1] = tested on: Frankliniella occidentalis; assay: Pest control test of Frankliniella occidentalis, kidney bean leaf disk foliar spray; settings: for % Mortality, Test Example7 Frankliniella occidentalis: foliar treatment
Excerpt: Test Example 7 Pest Control Test of Frankliniella occidentalis
(§1) A leaf disk having a diameter of 2.8 cm was cut out from a kidney bean in pot culture, and a drug solution of the compound of the present invention at a predetermined concentration, which had been prepared so as to be a 50% acetone water (0.05% Tween20 available), was sprayed to the leaf disk. After an air drying process, first instar larvae were released thereto. Thereafter, the larvae were left to stand in a thermostatic chamber (16 hours of light period-8 hours of dark period) at 25° C. […] Test in duplicate.
(§2) Mortality of larvae(%)={number of dead larvae/(number of survived larvae+number of dead larvae)}×100

[2] = tested on: Trigonotylus caelestialium; assay: Pest control test of Trigonotylus caelestialium, wheat seedling dipping
Excerpt: Test Example 8 Pest Control Test of Trigonotylus caelestialium
Wheat seedling leaves and stems four days after the dissemination of seedlings were dipped for 30 seconds in a drug solution of the compound of the present invention at a predetermined concentration, which had been prepared so as to be a 50% acetone water (0.05% Tween20 available). After an air drying process, the wheat seedling leaves and stems were placed into a glass tube, and two second instar larvae of Trigonotylus caelestialium were released to the same glass tube. After the larvae were released, the tube was lidded to leave the larvae to stand in a thermostatic chamber at 25° C. In order to supply water to the wheat during the test, water was given to the wheat from the bottom of the glass tube.
as §2

Aphis gossypii = assay: Pest control test of Aphis gossypii, cucumber leaf disk foliar spray; settings: foliar treatment
Experimental: Test Example 3 Pest Control Test of Aphis gossypii
as §1, with “2.0” for “2.8”, “cucumber” for “kidney bean”
as §2

Laodelphax striatella = assay: Pest control test of Laodelphax striatella, soil irrigation treatment of rice seedling; settings: for % Mortality, Test Example 10 Laodelphax striatella: soil irrigation treatment; for mortality of larvae: soil irrigation, 0.05 mg/seedling, three days after release
Excerpt: <Soil Irrigation Treatment Test>
Test Example 10 Pest Control Test of Laodelphax striatellua
(§3) A rice seedling in pot culture was subjected to soil irrigation treatment with a drug solution of the compound of the present invention at a predetermined concentration, which had been prepared so as to be a 10% acetone water. Three days after the treatment, ten second instar larvae of Laodelphax striatella were each released thereto. Thereafter, the larvae were left to stand in a thermostatic chamber (16 hours of light period-8 hours of dark period) at 25° C. […] The test was performed in duplicate.
as §2

Plutella xylostella = Plutella xylostella control test, cabbage leaf disk foliar spray; settings: for % Mortality, Test Example1 Plutella xylostella: foliar treatment
Experimental: Test Example 1 Plutella xylostella Control Test
as §1, with “5.0” for “2.8”, “cabbage” for “kidney bean”, “second” for “first”
mortality larvae(%)={number of dead larvae/(number of survived larvae+number of dead larvae)}×100

[3] = tested on: imidacloprid susceptible populations of Nilaparvata lugens; assay: Soil irrigation test, imidacloprid susceptible populations of Nilaparvata lugens; settings: Rate 0.05 mg/pot
Experimental: as §3, with “Three days after the treatment, ten second instar larvae of Laodelphax striatella were each released thereto.” left out
as §2
Further, for comparison, the test against some population of Nilaparvata lugens which is highly susceptible to imidacloprid was performed by the same method as described above, and the results thereof are shown in Table 43.
(§4) Further, for the origin of test pests, bugs collected outdoors within the Kumamoto prefecture in 2007 as the drug resistant Nilaparvata lugens, and bugs collected within the Kagoshima prefecture and then successively reared indoors for a long time as the imidacloprid susceptible populations of Nilaparvata lugens were used.

[4] = tested on: Nilaparvata lugens exhibiting drug resistance to imidacloprid; settings: soil irrigation; for Insecticidal effects against Nilaparvata lugens (mortality of larvae %), Drug resistant populations three days after the treatment: Rate 0.05 mg/pot; for insecticidal effects against drug resistant Nilaparvata lugens: imidacloprid-resistant; for mortality of larvae against drug resistant populations compared with susceptible populations of Nilaparvata lugens: imidacloprid-resistant vs susceptible
Experimental: Test Example 18 Pest Control Test of Drug-Resistant Nilaparvata lugens
as §3, with “Three days after the treatment, ten second instar larvae of Laodelphax striatella were each released thereto.” left out
as §2, §4

Nilaparvata lugens = assay: Pest control test of Nilaparvata lugens, soil irrigation treatment; settings: for % Mortality, Test Example 12 Nilaparvata lugens: soil irrigation treatment; for mortality of larvae: soil irrigation, 0.05 mg/seedling, three days after release
Experimental: Test Example 12 Pest Control Test of Nilaparvata lugens
as §3, with “Nilaparvata lugens” for “Laodelphax striatella”
as §2

Musca domestica = assay: Pest control test of Musca domestica adults, sucrose pledget; settings: 50 ppm in 40% sucrose liquid; four days after release
Experimental: Test Example 21 Pest Control Test of Musca domestica
A drug solution of the compound of the present invention, which had been adjusted to be 50 ppm with a 40% sucrose liquid, was adsorbed on a pledget, and the pledget was put into a vial. Two adults reared indoors were released thereto. Thereafter, the adults were left to stand indoors at room temperature of 25° C. […] When two adults were all agonized in death, it was judged to be effective.

Spodoptera litura = assay: Pest control test against Spodoptera litura, cabbage leaf disk foliar spray; settings: for % Mortality, Test Example2 Spodoptera litura: foliar treatment, 100 ppm; for mortality at 500 ppm: Spodoptera litura, 72 h, read-out: mortality of larvae
Experimental: Test Example 2 Pest Control Test Against Spodoptera litura
as §1, with “5.0” for “2.8”, “cabbage” for “kidney bean”, “third” for “first”
as §2

Compound | % Mortality, Test Example7 Frankliniella occidentalis ([1]; 100 ppm) [%] | % Mortality, Test Example8 Trigonotylus caelestialium ([2]; 2 ppm) [%] | % Mortality, Test Example8 Trigonotylus caelestialium ([2]; 10 ppm) [%] | % Mortality, Test Example8 Trigonotylus caelestialium ([2]; 50 ppm) [%] | % Mortality, Test Example3 Aphis gossypii (Aphis gossypii; 1.25 ppm) [%] | % Mortality, Test Example3 Aphis gossypii (Aphis gossypii; 5 ppm) [%] | % Mortality, Test Example3 Aphis gossypii (Aphis gossypii; 100 ppm) [%] | % Mortality, Test Example 10 Laodelphax striatella (Laodelphax striatella; 0.01 mg/pot) [%] | % Mortality, Test Example 10 Laodelphax striatella (Laodelphax striatella; 0.05 mg/pot) [%] | % Mortality, Test Example1 Plutella xylostella (Plutella xylostella; 20 ppm) [%] | % Mortality, Test Example1 Plutella xylostella (Plutella xylostella; 100 ppm) [%] | Insecticidal effects against Nilaparvata lugens (mortality of larvae %), Susceptible populations three days after the treatment [3] [%] | Insecticidal effects against Nilaparvata lugens (mortality of larvae %), Drug resistant populations three days after the treatment [4] [%] | insecticidal effects against drug resistant Nilaparvata lugens [4] | mortality of larvae against drug resistant populations compared with susceptible populations of Nilaparvata lugens [4] | % Mortality, Test Example 12 Nilaparvata lugens (Nilaparvata lugens; 0.01 mg/pot) [%] | % Mortality, Test Example 12 Nilaparvata lugens (Nilaparvata lugens; 0.05 mg/pot) [%] | activity against adults (effective when two adults were all agonized in death) (Musca domestica) | % Mortality, Test Example2 Spodoptera litura (Spodoptera litura) [%] | % Mortality, Test Example3 Aphis gossypii (Aphis gossypii; 0.313 ppm) [%] | also measured
FC(F)(F)C(=S)N=c1ccccn1Cc1ccc(Br)nc1 [Compound 4-20] | 60 | 33 | 100 | 100 | 100 | 100 | 100 | 100 | 100 | 70 | 100 | 95 | 100 | high insecticidal effects | equivalent mortality of larvae | 96 | 100 | all the adults are agonized in death | 20 | – | % Mortality, Test Example 10 Laodelphax striatella (Laodelphax striatella; 0.005 mg/pot): 35%
Fc1ccc(Cn2ccccc2=NC(=S)C(F)(F)F)cn1 [Compound 3-20] | 45 | 50 | 100 | 100 | 100 | 100 | 100 | – | 90 | 0 | 55 | 100 | 100 | high insecticidal effects | equivalent mortality of larvae | 100 | 100 | all the adults are agonized in death | 30 | 15 | % Mortality, Test Example3 Aphis gossypii (Aphis gossypii; 20 ppm): 100%
CCNC(=S)N=c1ccccn1Cc1ccc(Cl)nc1 [Comparative Example 8, 1-[1-((6-chloropyridine-3-yl)methyl)pyridine-2(1H)-ylidene]-3-ethylthiourea, reference compound] | – | – | – | – | – | – | – | – | – | – | – | 15 | – | – | – | – | – | – | – | – | mortality at 500 ppm ([1]; Frankliniella occidentalis, foliar, 72 h, read-out: mortality of larvae): 15%; mortality of larvae (Laodelphax striatella): 0%; mortality at 500 ppm (Plutella xylostella; Plutella xylostella, foliar, 72 h, read-out: mortality of larvae): 20%; mortality of larvae (Nilaparvata lugens): 15%; mortality at 500 ppm (Spodoptera litura; foliar): 10%
FC(F)C(=S)N=c1ccccn1Cc1ccc(Cl)nc1 [Compound 1-21] | 90 | 67 | 100 | 100 | 100 | 100 | 100 | 20 | 100 | 10 | 80 | 67 | 50 | high insecticidal effects | equivalent mortality of larvae | 10 | 85 | all the adults are agonized in death | 55 | 55 | % Mortality, Test Example7 Frankliniella occidentalis ([1]; 20 ppm): 80%; % Mortality, Test Example3 Aphis gossypii (Aphis gossypii; 20 ppm): 100%
FC(F)(Cl)C(=S)N=c1ccccn1Cc1ccc(Cl)nc1 [Compound 1-22] | – | – | – | – | – | – | – | – | – | – | – | 75 | 60 | high insecticidal effects | equivalent mortality of larvae | – | – | all the adults are agonized in death | – | – | –
CCOC(=O)NC(=S)/N=c1\ccccn1Cc1ccc(Cl)nc1 [Comparative Example 9, 1-[1-((6-chloropyridine-3-yl)methyl)pyridine-2(1H)-ylidene]-3-ethoxycarbonylthiourea, reference compound] | – | – | – | – | – | – | – | – | – | – | – | 0 | – | – | – | – | – | – | – | – | mortality of larvae (Laodelphax striatella): 0%; mortality of larvae (Nilaparvata lugens): 0%; mortality at 500 ppm (Spodoptera litura; foliar treatment at 500 ppm, third instar larvae, three days after release): 11%
